Data published in patent US20110086759A1, “CHEMICAL COMPOUNDS” (SYNGENTA CROP PROTECTION, INC., priority 2007, published 2011).

Columns and labels:
Assay type in all cases: in vivo
[1] = tested on: Ipomea hederaceae (IPOHE); test: Pre-emergence biological efficacy, glasshouse pot test; details: Ipomoea hederacea, 312 h
Procedure, shortened: (§1)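 Glasshouse pot test: spray on soil one day after sowing, 1000 or 250 g/ha. Conditions 24/16 °C day/night, 14 h light, 65% humidity. Plant damage scored 0–100 at 13 days.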

[2] = tested on: Echinochloa crus-galli (ECHCG); test: as above; details: 312 h
Procedure, shortened: as §1

Solanum nigrum (SOLNI) [3] = test: as above; details: 312 h
Procedure, shortened: as §1

[4] = tested on: Amaranthus retoflexus (AMARE); test: as above; details: Amaranthus retroflexus, 312 h
Procedure, shortened: as §1

Setaria faberi (SETFA) [5] = test: as above; details: 312 h
Procedure, shortened: as §1

[6] = tested on: Alopecurus myosuroides (ALOMY); test: as above; details: 312 h
Procedure, shortened: as §1

[7] = tested on: Ipomea hederaceae (IPOHE); test: Post-emergence biological efficacy, glasshouse pot test; details: Ipomoea hederacea, 312 h
Procedure, shortened: (§2)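 Pot-grown weeds were sprayed 8 days after sowing with test compound in acetone/water (50:50) with 0.5% Tween 20 at 1000 or 250 g/ha. Glasshouse at 24/16° C day/night, 14 h light, 65% humidity. Damage scored 0-100 (100 = total damage) after 13 days.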

[8] = tested on: Echinochloa crus-galli (ECHCG); test: as above; details: 312 h
Procedure, shortened: as §2

Solanum nigrum (SOLNI) [9] = test: as above; details: 312 h
Procedure, shortened: as §2

[10] = tested on: Amaranthus retoflexus (AMARE); test: as above; details: Amaranthus retroflexus, 312 h
Procedure, shortened: as §2

Setaria faberi (SETFA) [11] = test: as above; details: 312 h
Procedure, shortened: as §2

[12] = tested on: Alopecurus myosuroides (ALOMY); test: as above; details: 312 h
Procedure, shortened: as §2

[13] = pre-emergence, rate 1,000 g/ha, evaluated after 13 days (100=total damage to plant; 0=no damage), read-out: Percentage damage caused to weed species, IPOHE
[14] = pre-emergence, rate 1,000 g/ha, evaluated after 13 days (100=total damage to plant; 0=no damage), read-out: Percentage damage caused to weed species, ECHCG
[15] = pre-emergence, rate 1,000 g/ha, evaluated after 13 days (100=total damage to plant; 0=no damage), read-out: Percentage damage caused to weed species, SOLNI
[16] = pre-emergence, rate 1,000 g/ha, evaluated after 13 days (100=total damage to plant; 0=no damage), read-out: Percentage damage caused to weed species, AMARE
[17] = pre-emergence, rate 1,000 g/ha, evaluated after 13 days (100=total damage to plant; 0=no damage), read-out: Percentage damage caused to weed species, SETFA
[18] = pre-emergence, rate 1,000 g/ha, evaluated after 13 days (100=total damage to plant; 0=no damage), read-out: Percentage damage caused to weed species, ALOMY
[19] = Rate 1,000 g/ha, post-emergence spray, evaluated after 13 days (100=total damage to plant; 0=no damage to plant), read-out: Percentage damage caused to weed species, post-emergence, IPOHE
[20] = Rate 1,000 g/ha, post-emergence spray, evaluated after 13 days (100=total damage to plant; 0=no damage to plant), read-out: Percentage damage caused to weed species, post-emergence, ECHCG
[21] = Rate 1,000 g/ha, post-emergence spray, evaluated after 13 days (100=total damage to plant; 0=no damage to plant), read-out: Percentage damage caused to weed species, post-emergence, SOLNI
[22] = Rate 1,000 g/ha, post-emergence spray, evaluated after 13 days (100=total damage to plant; 0=no damage to plant), read-out: Percentage damage caused to weed species, post-emergence, AMARE
[23] = Rate 1,000 g/ha, post-emergence spray, evaluated after 13 days (100=total damage to plant; 0=no damage to plant), read-out: Percentage damage caused to weed species, post-emergence, SETFA
[24] = Rate 1,000 g/ha, post-emergence spray, evaluated after 13 days (100=total damage to plant; 0=no damage to plant), read-out: Percentage damage caused to weed species, post-emergence, ALOMY
[25] = pre-emergence, 1,000 g/ha, evaluated after 13 days (100=total damage; 0=no damage), read-out: Percentage damage IPOHE
[26] = pre-emergence, 1,000 g/ha, evaluated after 13 days (100=total damage; 0=no damage), read-out: Percentage damage ECHCG
[27] = pre-emergence, 1,000 g/ha, evaluated after 13 days (100=total damage; 0=no damage), read-out: Percentage damage SOLNI
[28] = pre-emergence, 1,000 g/ha, evaluated after 13 days (100=total damage; 0=no damage), read-out: Percentage damage AMARE
[29] = pre-emergence, 1,000 g/ha, evaluated after 13 days (100=total damage; 0=no damage), read-out: Percentage damage SETFA
[30] = pre-emergence, 1,000 g/ha, evaluated after 13 days (100=total damage; 0=no damage), read-out: Percentage damage ALOMY
[31] = post-emergence, 1,000 g/ha, evaluated after 13 days (100=total damage; 0=no damage), read-out: Percentage damage caused to weed species, IPOHE
[32] = post-emergence, 1,000 g/ha, evaluated after 13 days (100=total damage; 0=no damage), read-out: Percentage damage caused to weed species, ECHCG
[33] = post-emergence, 1,000 g/ha, evaluated after 13 days (100=total damage; 0=no damage), read-out: Percentage damage caused to weed species, SOLNI
[34] = post-emergence, 1,000 g/ha, evaluated after 13 days (100=total damage; 0=no damage), read-out: Percentage damage caused to weed species, AMARE
[35] = post-emergence, 1,000 g/ha, evaluated after 13 days (100=total damage; 0=no damage), read-out: Percentage damage caused to weed species, SETFA
[36] = post-emergence, 1,000 g/ha, evaluated after 13 days (100=total damage; 0=no damage), read-out: Percentage damage caused to weed species, ALOMY

SMILES	pest or weed control at 1000 g/ha [1, 13] [%]	pest or weed control at 1000 g/ha [2, 14] [%]	pest or weed control at 1000 g/ha (Solanum nigrum (SOLNI) [3]; [15]) [%]	pest or weed control at 1000 g/ha [4, 16] [%]	pest or weed control at 1000 g/ha (Setaria faberi (SETFA) [5]; [17]) [%]	pest or weed control at 1000 g/ha [6, 18] [%]	pest or weed control at 1000 g/ha [7, 19] [%]	pest or weed control at 1000 g/ha [8, 20] [%]	pest or weed control at 1000 g/ha [1, 25] [%]	pest or weed control at 1000 g/ha [2, 26] [%]	pest or weed control at 1000 g/ha (Solanum nigrum (SOLNI) [3]; [27]) [%]	pest or weed control at 1000 g/ha [4, 28] [%]	pest or weed control at 1000 g/ha (Setaria faberi (SETFA) [5]; [29]) [%]	pest or weed control at 1000 g/ha [6, 30] [%]	pest or weed control at 1000 g/ha [7, 31] [%]	pest or weed control at 1000 g/ha [8, 32] [%]	pest or weed control at 1000 g/ha (Solanum nigrum (SOLNI) [9]; [33]) [%]	pest or weed control at 1000 g/ha [10, 34] [%]	pest or weed control at 1000 g/ha (Setaria faberi (SETFA) [11]; [35]) [%]	pest or weed control at 1000 g/ha [12, 36] [%]	other results
CCN(Cc1cccc(F)c1)c1nc(C2CC2)nc(C(=O)OC)c1Cl [Compound 6-65, 5-Chloro-2-cyclopropyl-4-[N-ethyl-N-(3-fluorophenylmethyl)-amino]-6-methoxycarbonyl-pyrimidine]	70	20	40	70	30	20	100	70	–	–	–	–	–	–	–	–	–	–	–	–	pest or weed control at 1000 g/ha (Solanum nigrum (SOLNI) [9]; [21]): 90%; pest or weed control at 1000 g/ha [10, 22]: 100%; pest or weed control at 1000 g/ha (Setaria faberi (SETFA) [11]; [23]): 90%; pest or weed control at 1000 g/ha [12, 24]: 10%
COC(=O)c1nc(C2CC2)nc(NC(Cc2ccc(F)cc2)C(=O)OC)c1Cl (stereo not drawn) [Compound 4-284, 5-Chloro-2-cyclopropyl-4-[2-(4-fluorophenyl)-1-methoxycarbonyl-ethylamino]-6-methoxycarbonyl-pyrimidine]	–	–	–	–	–	–	–	–	100	30	90	100	30	20	100	20	80	100	40	30	–
C=CCN(Cc1ccccc1F)c1nc(C2CC2)nc(C(=O)OC)c1Cl [Compound 151-64, 5-Chloro-2-cyclo-propyl-4-[N(2-fluorophenyl)methyl-N-prop-2-enyl-amino]-6-methoxy-carbonylpyrimidine]	30	0	0	30	0	0	100	40	–	–	–	–	–	–	–	–	–	–	–	–	pest or weed control at 1000 g/ha (Solanum nigrum (SOLNI) [9]; [21]): 90%; pest or weed control at 1000 g/ha [10, 22]: 100%; pest or weed control at 1000 g/ha (Setaria faberi (SETFA) [11]; [23]): 90%; pest or weed control at 1000 g/ha [12, 24]: 10%
COC(=O)c1nc(C2CC2)nc(NC2CC2)c1Cl [Compound 4-1, 5-Chloro-2-cyclopropyl-4-cyclopropylamino-6-methoxycarbonyl-pyrimidine]	–	–	–	–	–	–	–	–	90	50	100	100	60	40	90	60	100	100	80	60	–
COC(=O)c1nc(C2CC2)nc(NC2(/C=C/c3ccc(C)cc3)CC2)c1Cl [Compound 4-25, 5-Chloro-2-cyclopropyl-6-methoxycarbonyl-4-{1-[2-(4-methylphenyl)-ethenyl]-cyclopropylamino}-pyrimidine]	–	–	–	–	–	–	–	–	30	10	60	100	0	10	100	60	80	100	60	40	–
CCN(Cc1ccc(C)o1)c1nc(C2CC2)nc(C(=O)OC)c1Cl [Compound 6-135, 5-Chloro-2-cyclopropyl-4-[N-ethyl-N-(5-methylfuran-2-ylmethyl)-amino]-6-methoxycarbonyl-pyrimidine]	100	60	80	100	40	40	90	60	–	–	–	–	–	–	–	–	–	–	–	–	pest or weed control at 1000 g/ha (Solanum nigrum (SOLNI) [9]; [21]): 90%; pest or weed control at 1000 g/ha [10, 22]: 100%; pest or weed control at 1000 g/ha (Setaria faberi (SETFA) [11]; [23]): 90%; pest or weed control at 1000 g/ha [12, 24]: 30%
COC(=O)c1nc(-c2ccc(Cl)c(Cl)c2F)nc(NCc2ccco2)c1Cl [Compound 226-48, 5-Chloro-2-(3,4-dichloro-2-fluorophenyl)-4-(furan-2-ylmethyl-amino)-6-methoxy-carbonylpyrimidine]	30	30	100	100	40	50	60	60	–	–	–	–	–	–	–	–	–	–	–	–	pest or weed control at 1000 g/ha (Solanum nigrum (SOLNI) [9]; [21]): 90%; pest or weed control at 1000 g/ha [10, 22]: 100%; pest or weed control at 1000 g/ha (Setaria faberi (SETFA) [11]; [23]): 80%; pest or weed control at 1000 g/ha [12, 24]: 50%
COC(=O)c1nc(C2CC2)nc(N[C@H](CO)Cc2ccccc2)c1Cl [4-273 (S), 5-Chloro-2-cyclopropyl-4-[(1S)-1-hydroxymethyl-2-phenyl-ethylamino]-6-methoxy-carbonylpyrimidine]	–	–	–	–	–	–	–	–	90	60	90	100	80	40	90	60	100	100	70	50	–
COC(=O)c1nc(C2CC2)nc(NCCN2CCOCC2)c1Cl [Compound 4-220, 5-Chloro-2-cyclopropyl-6-methoxycarbonyl-4-[2-(morpholin-4-yl)ethylamino]-pyrimidine]	–	–	–	–	–	–	–	–	50	30	40	60	0	0	100	30	90	100	40	20	–
